Where two headings read alike, the source gives them in different places.
Columns and labels:
[1] = test system: pERK (phospho-p44/42 ERK) in HCC827 cells; experiment: Cellular pERK Inhibition Assay, Method A (In-Cell Western); type: cell-based; conditions: Homo sapiens
Procedure, shortened: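 In-Cell Western: phospho-p44/42 ERK antibody staining of formalin-fixed HCC827 cells after compound exposure (serum-free medium, 0.2% DMSO, 37 °C, indicated time). Readings minus cell-free blanks were normalised to DMSO-treated wells. Relative IC50 came from four-parameter logistic fits of quadruplicates, given as single or mean values.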

[2] = target: SHP2 (Homo sapiens (Human), UniProt Q06124); experiment: SHP2 Biochemical Assay (DiFMUP conversion, pIRS1-activated)
Procedure, shortened: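 Rates of DiFMU formation were followed 30 min at ex 360/em 450 nm, with 50 μM DiFMUP, 10 pM SHP2 and pIRS1 peptide ([…]) after 30 min compound pre-incubation at pH 7.0 Bis-Tris propane. Four-parameter logistic IC50s in singlicate; repeat runs averaged.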

[3] = Table 19, head prints unit as "-M", read-out: pERK (IC50) Method A
[4] = Table 19, head prints unit as "-M"
[5] = Table 20, read-out: pERK (IC50, μM) Method A

SHP2, sequence (Q06124 whole entry): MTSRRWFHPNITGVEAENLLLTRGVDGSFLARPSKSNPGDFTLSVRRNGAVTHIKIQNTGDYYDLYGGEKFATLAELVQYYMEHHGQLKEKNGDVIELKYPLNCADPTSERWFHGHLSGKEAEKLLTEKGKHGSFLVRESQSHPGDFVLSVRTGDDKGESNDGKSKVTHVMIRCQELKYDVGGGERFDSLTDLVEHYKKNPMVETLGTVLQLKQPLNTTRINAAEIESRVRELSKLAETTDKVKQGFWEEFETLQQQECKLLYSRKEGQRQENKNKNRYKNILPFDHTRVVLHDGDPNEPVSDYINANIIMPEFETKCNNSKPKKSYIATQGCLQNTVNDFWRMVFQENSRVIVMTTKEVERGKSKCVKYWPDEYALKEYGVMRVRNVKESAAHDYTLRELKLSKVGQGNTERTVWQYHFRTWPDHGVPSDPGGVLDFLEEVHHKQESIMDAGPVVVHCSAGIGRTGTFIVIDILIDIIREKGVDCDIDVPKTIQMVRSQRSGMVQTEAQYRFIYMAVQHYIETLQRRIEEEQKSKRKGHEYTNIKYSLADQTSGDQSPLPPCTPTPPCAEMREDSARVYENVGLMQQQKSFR

| Structure (SMILES) | IC50 [1, 3] [µM] | IC50 [2, 4] [nM] | IC50 [1, 5] [µM] | IC50 ([2]; Table 20) [nM] |
| --- | --- | --- | --- | --- |
| CN(C)C(=O)Cn1cc2c(Cl)c(-c3c[nH]c4nc(N5C6CCC5CNC6)n(C)c(=O)c34)ccc2n1 [Example 86, 2-(5-(2-(3,8-diazabicyclo[3.2.1]octan-8-yl)-3-methyl-4-oxo-4,7-dihydro-3H-pyrrolo[2,3-d]pyrimidin-5-yl)-4-chloro-2H-indazol-2-yl)-N,N-dimethylacetamide] | 5.2 | 59 |  |  |
| CCc1nc2ccc(-c3c[nH]c4nc(N5[C@@H]6CC[C@H]5C[C@@H](N)C6)n(C)c(=O)c34)c(Cl)c2s1 [Example 6, 2-(endo-3-amino-8-azabicyclo[3.2.1]octan-8-yl)-5-(7-chloro-2-ethylbenzo[d]thiazol-6-yl)-3-methyl-3,7-dihydro-4H-pyrrolo[2,3-d]pyrimidin-4-one] | 0.58 | 6.5 |  |  |
| Cn1cc2c(Cl)c(-c3c[nH]c4nc(N5CC(N)C(F)(F)C5)n(C)c(=O)c34)ccc2n1 (stereo not drawn) [Example 53, 2-(4-amino-3,3-difluoropyrrolidin-1-yl)-5-(4-chloro-2-methyl-2H-indazol-5-yl)-3-methyl-3,7-dihydro-4H-pyrrolo[2,3-d]pyrimidin-4-one] | 3.1 | 330 |  |  |
| Cn1cc2c(Cl)c(-c3c[nH]c4nc(N5C[C@@H]6C[C@H]5CN6)n(C)c(=O)c34)ccc2n1 [Example 21, 2-((1S,4S)-2,5-diazabicyclo[2.2.1]heptan-2-yl)-5-(4-chloro-2-methyl-2H-indazol-5-yl)-3-methyl-3,7-dihydro-4H-pyrrolo[2,3-d]pyrimidin-4-one] | 0.32 | 11 |  |  |
| CN[C@H]1C[C@H]2CC[C@@H]1N2c1nc2[nH]cc(-c3ccc4nn(C)cc4c3Cl)c2c(=O)n1C [Example 165, 5-(4-chloro-2-methyl-2H-indazol-5-yl)-3-methyl-2-((1S,2S,4R)-2-(methylamino)-7-azabicyclo[2.2.1]heptan-7-yl)-3,7-dihydro-4H-pyrrolo[2,3-d]pyrimidin-4-one] |  |  | 1.4 | 84 |
| Cn1cc2c(Cl)c(-c3c[nH]c4nc(N5CCC(F)(CN)CC5)n(C)c(=O)c34)ccc2n1 [Example 65, 2-(4-(aminomethyl)-4-fluoropiperidin-1-yl)-5-(4-chloro-2-methyl-2H-indazol-5-yl)-3-methyl-3,7-dihydro-4H-pyrrolo[2,3-d]pyrimidin-4-one] | 0.43 | 33 |  |  |
| Cc1nc2ccc(-c3c[nH]c4nc(N5[C@@H]6CC[C@H]5C[C@@H](N)C6)n(C)c(=O)c34)c(Cl)c2s1 [Example 7, 2-(endo-3-amino-8-azabicyclo[3.2.1]octan-8-yl)-5-(7-chloro-2-methylbenzo[d]thiazol-6-yl)-3-methyl-3,7-dihydro-4H-pyrrolo[2,3-d]pyrimidin-4-one] | 0.17 | 9 |  |  |
| C[C@@H]1CN(c2nc3[nH]cc(-c4ccc5nn(C)cc5c4Cl)c3c(=O)n2C)C[C@@H]1N [Example 56, 2-((3R,4R)-3-amino-4-methylpyrrolidin-1-yl)-5-(4-chloro-2-methyl-2H-indazol-5-yl)-3-methyl-3,7-dihydro-4H-pyrrolo[2,3-d]pyrimidin-4-one] | 1.1 | 73 |  |  |
| CCn1nc2ccc(-c3n[nH]c4nc(N5[C@H]6CC[C@@H]5[C@H](NC)C6)n(C)c(=O)c34)c(Cl)c2c1Cl [Example 128, 3-(3,4-dichloro-2-ethyl-2H-indazol-5-yl)-5-methyl-6-((1R,2R,4S)-2-(methylamino)-7-azabicyclo[2.2.1]heptan-7-yl)-1,5-dihydro-4H-pyrazolo[3,4-d]pyrimidin-4-one] | 0.16 | 11 |  |  |
| CCn1nc2ccc(-c3n[nH]c4nc(N5[C@H]6CC[C@@H]5[C@H](N)C6)n(C)c(=O)c34)c(Cl)c2c1Cl [Example 127, 6-((1R,2R,4S)-2-amino-7-azabicyclo[2.2.1]heptan-7-yl)-3-(3,4-dichloro-2-ethyl-2H-indazol-5-yl)-5-methyl-1,5-dihydro-4H-pyrazolo[3,4-d]pyrimidin-4-one] | 0.063 | 3.7 |  |  |
| Cn1cc2c(Cl)c(-c3c[nH]c4nc(N5C[C@@H](N)[C@@H](F)C5)n(C)c(=O)c34)ccc2n1 [Example 50, 2-((3R,4S)-3-amino-4-fluoropyrrolidin-1-yl)-5-(4-chloro-2-methyl-2H-indazol-5-yl)-3-methyl-3,7-dihydro-4H-pyrrolo[2,3-d]pyrimidin-4-one] | 4.7 | 250 |  |  |
| Cn1cc2c(Cl)c(-c3c[nH]c4nc(N5CC6CC5CC6N)n(C)c(=O)c34)ccc2n1 (stereo not drawn) [Example 35, 2-(5-amino-2-azabicyclo[2.2.1]heptan-2-yl)-5-(4-chloro-2-methyl-2H-indazol-5-yl)-3-methyl-3,7-dihydro-4H-pyrrolo[2,3-d]pyrimidin-4-one] | 1 | 38 |  |  |
| CCn1nc2ccc(-c3c[nH]c4nc(N5[C@H]6CC[C@@H]5[C@H](N)C6)n(C)c(=O)c34)c(Cl)c2c1OC [Example 102, 2-((1R,2R,4S)-2-amino-7-azabicyclo[2.2.1]heptan-7-yl)-5-(4-chloro-2-ethyl-3-methoxy-2H-indazol-5-yl)-3-methyl-3,7-dihydro-4H-pyrrolo[2,3-d]pyrimidin-4-one] | 0.088 | 9 |  |  |
| Cc1nc2ccc(-c3c[nH]c4nc(N5[C@H]6CC[C@@H]5[C@H](N)C6)n(C)c(=O)c34)c(Cl)c2s1 [Example 95, 2-((1R,2R,4S)-2-amino-7-azabicyclo[2.2.1]heptan-7-yl)-5-(7-chloro-2-methylbenzo[d]thiazol-6-yl)-3-methyl-3,7-dihydro-4H-pyrrolo[2,3-d]pyrimidin-4-one] | 0.068 | 2.5 |  |  |
| Cn1nc2ccc(-c3c[nH]c4nc(N5C[C@H]6CC[C@@H]5[C@@H]6N)n(C)c(=O)c34)c(F)c2c1Cl [Example 174, 2-((1R,4R,7R)-7-amino-2-azabicyclo[2.2.1]heptan-2-yl)-5-(3-chloro-4-fluoro-2-methyl-2H-indazol-5-yl)-3-methyl-3,7-dihydro-4H-pyrrolo[2,3-d]pyrimidin-4-one] |  |  | 0.021 | 3 |
| CCn1cc2c(Cl)c(-c3c[nH]c4nc(N5[C@@H]6CC[C@H]5C[C@@H](NC)C6)n(C)c(=O)c34)ccc2n1 [Example 13, 5-(4-chloro-2-ethyl-2H-indazol-5-yl)-3-methyl-2-(endo-3-(methylamino)-8-azabicyclo[3.2.1]octan-8-yl)-3,7-dihydro-4H-pyrrolo[2,3-d]pyrimidin-4-one] | 0.34 | 19 |  |  |
| Cn1cc2c(Cl)c(-c3c[nH]c4nc(N5C6CCC5CNC6)n(C)c(=O)c34)ccc2n1 [Example 1, 2-(3,8-diazabicyclo[3.2.1]octan-8-yl)-5-(4-chloro-2-methyl-2H-indazol-5-yl)-3-methyl-3,7-dihydro-4H-pyrrolo[2,3-d]pyrimidin-4-one] | 0.14 | 14 |  |  |
| CN(C)C(=O)Cn1nc2ccc(-c3c[nH]c4nc(N5C6CCCC5CNC6)n(C)c(=O)c34)c(Cl)c2c1Cl [Example 82, 2-(5-(2-(3,9-diazabicyclo[3.3.1]nonan-9-yl)-3-methyl-4-oxo-4,7-dihydro-3H-pyrrolo[2,3-d]pyrimidin-5-yl)-3,4-dichloro-2H-indazol-2-yl)-N,N-dimethylacetamide] | 0.91 | 14 |  |  |
| Cn1cc2c(Cl)c(-c3c[nH]c4nc(N5[C@@H]6CC[C@H]5C[C@H](N)C6)n(C)c(=O)c34)ccc2n1 [Example 10, 2-(exo-3-amino-8-azabicyclo[3.2.1]octan-8-yl)-5-(4-chloro-2-methyl-2H-indazol-5-yl)-3-methyl-3,7-dihydro-4H-pyrrolo[2,3-d]pyrimidin-4-one] | 0.17 | 8.5 |  |  |
| Cn1nc2ccc(-c3n[nH]c4nc(N5[C@H]6CC[C@@H]5[C@](C)(N)C6)n(C)c(=O)c34)c(Cl)c2c1Cl (racemic) [Example 175, rac-6-((1R,2R,4S)-2-amino-2-methyl-7-azabicyclo[2.2.1]heptan-7-yl)-3-(3,4-dichloro-2-methyl-2H-indazol-5-yl)-5-methyl-1,5-dihydro-4H-pyrazolo[3,4-d]pyrimidin-4-one] |  |  | 0.22 | 12 |
| Cn1cc2c(Cl)c(-c3c[nH]c4nc(N5C[C@H]6CC[C@@H](C5)[C@H]6N)n(C)c(=O)c34)ccc2n1 [Example 25, 2-(endo-8-amino-3-azabicyclo[3.2.1]octan-3-yl)-5-(4-chloro-2-methyl-2H-indazol-5-yl)-3-methyl-3,7-dihydro-4H-pyrrolo[2,3-d]pyrimidin-4-one] | 0.43 | 35 |  |  |
| Cn1cc2c(Cl)c(-c3c[nH]c4nc(N5C[C@H](N)[C@@H](F)C5)n(C)c(=O)c34)ccc2n1 [Example 52, 2-((3S,4S)-3-amino-4-fluoropyrrolidin-1-yl)-5-(4-chloro-2-methyl-2H-indazol-5-yl)-3-methyl-3,7-dihydro-4H-pyrrolo[2,3-d]pyrimidin-4-one] | 1.9 | 180 |  |  |
| Cc1cc(-c2c[nH]c3nc(N4[C@@H]5CC[C@H]4C[C@@H](N)C5)n(C)c(=O)c23)c(Cl)c2cn(C)nc12 [Example 76, 2-(endo-3-amino-8-azabicyclo[3.2.1]octan-8-yl)-5-(4-chloro-2,7-dimethyl-2H-indazol-5-yl)-3-methyl-3,7-dihydro-4H-pyrrolo[2,3-d]pyrimidin-4-one] | 0.18 | 31 |  |  |
| CN[C@H]1[C@H]2CC[C@@H]1N(c1nc3[nH]cc(-c4ccc5nn(C)cc5c4Cl)c3c(=O)n1C)C2 (racemic) [Example 135, rac-5-(4-chloro-2-methyl-2H-indazol-5-yl)-3-methyl-2-((1S,4S,7S)-7-(methylamino)-2-azabicyclo[2.2.1]heptan-2-yl)-3,7-dihydro-4H-pyrrolo[2,3-d]pyrimidin-4-one] | 0.95 | 48 |  |  |

From US12037345B2, “Heterobicyclic compounds for inhibiting the activity of SHP2” (TAIHO PHARMACEUTICAL CO., LTD., priority 2018, dated 2024)
